Among the data in PubChem BioAssay AID602427 (Sanford-Burnham Center for Chemical Genomics, 2012) are EC50 values, retold here.

Each structure is given as a SMILES string. Activity calls are given as the source filed them.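 The calls were made as follows: active = EC50 at or below 20 micromolar; inactive = the rest.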

Neurotensin receptor type 1 (Homo sapiens), sequence (P30989 whole entry, looked up): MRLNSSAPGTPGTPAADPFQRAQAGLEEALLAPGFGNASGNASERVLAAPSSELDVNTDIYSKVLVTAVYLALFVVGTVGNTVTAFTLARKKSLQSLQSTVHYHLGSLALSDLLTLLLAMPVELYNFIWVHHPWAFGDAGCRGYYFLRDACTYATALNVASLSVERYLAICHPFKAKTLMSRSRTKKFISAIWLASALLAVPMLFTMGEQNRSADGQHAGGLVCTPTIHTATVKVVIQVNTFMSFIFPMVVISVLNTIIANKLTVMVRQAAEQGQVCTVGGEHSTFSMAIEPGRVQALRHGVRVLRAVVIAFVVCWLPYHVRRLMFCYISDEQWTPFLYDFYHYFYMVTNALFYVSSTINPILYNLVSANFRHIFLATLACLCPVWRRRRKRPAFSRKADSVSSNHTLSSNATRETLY

This test concerns the target Neurotensin receptor type 1 (Homo sapiens) (UniProt P30989). Kind of test: NTR1 agonists, beta-arrestin recruitment, SAR follow-up, orthogonal assay for NTR1 agonist project, cell-based, luminescence, CHO-K1 NTSR1 PathHunter (AID 602427).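 Also: agonist potency for NTR1 activation where higher luminescence means more arrestin recruitment.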 On the technique in general: Recruitment of arrestin is a read-out of receptor activation apart from second messengers.
As usually defined, the EC50 is the concentration at which the effect is half-maximal. For the compound `COc1ccc(Cn2c(SCc3ccccc3C)nc3cc(OC)c(OC)cc3c2=N)cc1Cl`, the EC50 is > 33 µM (inactive). With `CCCSc1nc2cc(OC)c(OC)cc2c(=N)n1Cc1cccc(C(F)(F)F)c1`, the EC50 was > 33 µM (inactive). On to `COc1cccc(OC)c1-c1cc(C(=O)N[C@@H](CC(C)C)C(=O)OC(C)(C)C)nn1-c1ccnc2cc(Cl)ccc12`, for which the EC50 was > 33 µM (inactive). `COc1cc2c3nnc(-c4ccc(Cl)cc4)c-3cn(Cc3ccc(C)cc3)c2cc1OC`: the EC50 was > 33 µM (inactive). The value for `COc1ccccc1-c1cc(C(=O)O)nn1-c1ccnc2cc(Cl)ccc12` was > 33 µM (inactive). The value for `Cc1ccc(Cn2cc3c(-c4ccc(F)cc4)nnc-3c3cc4c(cc32)OCO4)cc1` was > 33 µM (inactive). The value for `COc1ccc(Cn2cc3c(-c4ccc(F)cc4)nnc-3c3cc(OC)c(OC)cc32)cc1` was > 33 µM (inactive); that for `Cc1ccc(-c2nnc3c4cc5c(cc4n(Cc4ccccc4)cc2-3)OCO5)cc1` was > 33 µM (inactive). `COc1cc2c3nnc(-c4ccccc4)c-3cn(Cc3ccc(F)cc3)c2cc1OC`: the EC50 is > 33 µM (inactive). To `Cc1ccc(Cn2cc3c(-c4ccc(C)cc4)nnc-3c3cc4c(cc32)OCO4)cc1` belongs > 33 µM (inactive); to `Cc1ccc(-c2nnc3c4cc5c(cc4n(Cc4ccc(F)cc4)cc2-3)OCO5)cc1`, > 33 µM (inactive); to `COc1ccc(-c2nnc3c4ccccc4n(Cc4ccc(Cl)cc4)cc2-3)cc1`, > 33 µM (inactive). For the compound `COc1cccc(OC)c1-c1cc(C(=O)NC2(C(=O)O)C3CC4CC(C3)CC2C4)nn1-c1ccc(C(=O)N(C)CCCN(C)C)cc1C(C)C` (stereo not given), the EC50 was > 33 µM (inactive).

Turning to `Cc1ccc(Cn2cc3c(-c4ccc(Cl)cc4)nnc-3c3cc4c(cc32)OCO4)cc1`, the EC50 was > 33 µM (inactive).

On to `COc1ccc(C(=O)c2cn(Cc3ccncc3)c3ccccc3c2=O)cc1`, for which the EC50 is > 33 µM (inactive).

`CCn1cc(C(=O)c2ccc(F)cc2)c(=O)c2cc(OC)c(OC)cc21`: the EC50 was > 33 µM (inactive).

Take `CCOc1ccc(-c2nnc3c4cc(OC)c(OC)cc4n(Cc4ccccc4)cc2-3)cc1`: the EC50 result was “inactive”.

Turning to `COc1ccc(/C=N/Nc2nc(-c3ccc(S(=O)(=O)N(C)C)cc3)cs2)cc1OC`, the EC50 is > 33 µM (inactive). To `COc1cc2c(=O)c(C(=O)c3ccc(F)cc3)cn(Cc3ccc(OC(F)(F)F)cc3)c2cc1OC` belongs > 33 µM (inactive); to `c1ccc(N2CCN(c3ncnc4c3cnn4-c3ccccc3)CC2)cc1`, > 33 µM (inactive). The value for `COc1ccc(-c2nc(C(=O)N[C@@H](CC(C)C)C(=O)O)cn2-c2ccnc3cc(Cl)ccc23)c(OC)c1` was > 33 µM (inactive); that for `COc1ccc2c3nnc(-c4ccc(C)cc4)c-3cn(Cc3ccccc3)c2c1` was > 33 µM (inactive); that for `Cc1ccc(-n2ncc3c(N4CCN(c5ccccc5)CC4)ncnc32)cc1C` was > 33 µM (inactive).

For `COc1cccc(OC)c1-c1nc(C(=O)N[C@@H](CC(C)C)C(=O)O)cn1-c1ccc(C)cc1`, the EC50 is > 33 µM (inactive).

With `COc1ccc(C(=O)c2cn(Cc3ccc(N(C)C)cc3)c3ccccc3c2=O)cc1`, the EC50 is > 33 µM (inactive). To `CN(C)S(=O)(=O)c1ccc(-c2csc(N/N=C/c3ccccc3)n2)cc1` belongs > 33 µM (inactive). The value for `CN(C)S(=O)(=O)c1ccc(-c2csc(N/N=C/c3cccc(Cl)c3)n2)cc1` was > 33 µM (inactive). The value for `CCc1ccc(-c2nnc3c4cc(OC)c(OC)cc4n(Cc4ccc(F)cc4)cc2-3)cc1` was > 33 µM (inactive); that for `COc1ccc2c3nnc(-c4ccc(C)cc4)c-3cn(Cc3ccc(F)cc3)c2c1` was > 33 µM (inactive); that for `COc1cccc(OC)c1-c1cc(C(=O)O)nn1-c1ccnc2cc(Cl)ccc12` was > 33 µM (inactive).
